Source: US20160120863A1, “SLC2A TRANSPORTER INHIBITORS” (IOMET PHARMA LTD., priority 2013, published 2016)

Target: T1, human GLUT1 (Homo sapiens, UniProt P11166)
T1 construct: expressed in transfected cells
T1 sequence (P11166 1-492): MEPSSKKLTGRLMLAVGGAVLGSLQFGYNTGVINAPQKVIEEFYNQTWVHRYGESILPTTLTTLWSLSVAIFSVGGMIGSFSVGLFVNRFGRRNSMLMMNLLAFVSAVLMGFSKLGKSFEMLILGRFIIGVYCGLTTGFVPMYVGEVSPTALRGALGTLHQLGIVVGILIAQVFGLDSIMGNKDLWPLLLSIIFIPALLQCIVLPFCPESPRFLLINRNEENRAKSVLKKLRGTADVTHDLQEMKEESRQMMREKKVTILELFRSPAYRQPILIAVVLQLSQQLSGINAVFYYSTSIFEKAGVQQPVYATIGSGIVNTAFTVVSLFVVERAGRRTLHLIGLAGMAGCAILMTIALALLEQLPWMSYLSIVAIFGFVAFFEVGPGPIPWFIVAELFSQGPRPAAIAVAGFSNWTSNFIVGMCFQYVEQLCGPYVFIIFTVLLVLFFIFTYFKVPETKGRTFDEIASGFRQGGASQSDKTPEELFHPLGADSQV
Assay: [3H]-deoxy-D-glucose uptake assay, GLUT1
Format: cell-based
Conditions: [3H]-deoxy-D-glucose uptake in HEK293 cells stably expressing human GLUT1
Procedure: HEK293 cells were engineered to stably express either human GLUT1, GLUT2, GLUt3 or GLUT4 by transfection with the pReceiver-Lv105 plasmid, containing either hGLUT1, hGLUT2, hGLUT3, or hGLUT4 gene constructs with lipofectamine 2000, hGLUT1- hGLUT2- hGLUT3- or hGLUT4-overexpressing polyclonal populations were isolated under purinomycin selective pressure (1 μg/ml) and maintained in Dulbecco's modified Eagle's medium supplemented with 1 μg/ml purinomycin+10% foetal bovine serum (FBS).
60,000 cells per well were seeded overnight into poly-D-lysine coasted 96-well plates. […] 90 μl of test compounds were added in glucose-free uptake buffer and cells were incubated at 37° C. for 30 min.
Cells were then washed twice with ice-cold PBS and 100 μl of Microscint-20 was added per well. Glucose uptake was quantified with a scintillation counter. The half maximal inhibitory concentration (IC50) (a measure of the effectiveness of the test compound in inhibiting glucose uptake) was determined.

SMILES | GLUT1 pIC50
Clc1ccc(-c2nc3ccc(N4CCOCC4)cn3c2CN2CCOCC2)cc1 [Compound 122] | ++ (pIC50 5.00-5.99)
Clc1ccc(-c2nc3ccc(Br)cn3c2CN2CCOCC2)cc1 [Compound 124] | + (pIC50 4.00-4.99)
CN1CCN(Cc2c(-c3ccc(Cl)cc3)nc3ccc(-c4ccccc4)cn23)CC1 [Compound 125] | + (pIC50 4.00-4.99)
COc1ccccc1C(=O)N1CCN(Cc2c(-c3ccc(Cl)cc3)nc3ccc(-c4ccccc4)cn23)CC1 [Compound 128] | +++ (pIC50 ≧ 6.00)
COc1cccc(C(=O)N2CCN(Cc3c(-c4ccc(Cl)cc4)nc4ccc(-c5ccccc5)cn34)CC2)c1 [Compound 129] | +++ (pIC50 ≧ 6.00)
O=C1CN(Cc2c(-c3ccc(Cl)cc3)nc3ccc(-c4ccccc4)cn23)CCN1 [Compound 130] | ++ (pIC50 5.00-5.99)
O=C(C1CC1)N1CCN(Cc2c(-c3ccc(Cl)cc3)nc3ccc(-c4ccccc4)cn23)CC1 [Compound 133] | +++ (pIC50 ≧ 6.00)
O=C1CN(Cc2c(-c3ccc(Cl)cc3)nc3ccc(-c4ccccc4)cn23)CCN1Cc1ccccc1 [Compound 134] | ++ (pIC50 5.00-5.99)
c1ccc(-c2ccc3nc(-c4cccnc4)c(CN4CCOCC4)n3c2)cc1 [Compound 139] | + (pIC50 4.00-4.99)
O=C(c1ccccn1)N1CCN(Cc2c(-c3ccc(Cl)cc3)nc3ccc(-c4ccccc4)cn23)CC1 [Compound 144] | +++ (pIC50 ≧ 6.00)
O=C(c1cccnc1)N1CCN(Cc2c(-c3ccc(Cl)cc3)nc3ccc(-c4ccccc4)cn23)CC1 [Compound 145] | +++ (pIC50 ≧ 6.00)
O=C(c1ccncc1)N1CCN(Cc2c(-c3ccc(Cl)cc3)nc3ccc(-c4ccccc4)cn23)CC1 [Compound 152] | +++ (pIC50 ≧ 6.00)
FC(F)(F)Oc1ccccc1-c1ccc2nc(-c3ccc(Cl)cc3)c(CN3CCOCC3)n2c1 [Compound 153] | +− (pIC50 < 4.00)
COc1ccc2nc(-c3ccc(Cl)cc3)c(CN3CCOCC3)n2c1 [Compound 154] | + (pIC50 4.00-4.99)
Cc1ccc(-c2nc3ccc(-c4ccccc4)cn3c2CN2CCOCC2)cc1 [Compound 157] | ++ (pIC50 5.00-5.99)
Clc1ccc(-c2nc3ccc(Oc4ccccc4)cn3c2CN2CCOCC2)cc1 [Compound 158] | + (pIC50 4.00-4.99)
O=C(c1cscn1)N1CCN(Cc2c(-c3ccc(Cl)cc3)nc3ccc(-c4ccccc4)cn23)CC1 [Compound 159] | +++ (pIC50 ≧ 6.00)
O=C1CCCN1c1ccc2nc(-c3ccc(Cl)cc3)c(CN3CCOCC3)n2c1 [Compound 162] | + (pIC50 4.00-4.99)
CCOC(=O)c1ccc2nc(-c3ccc(Cl)cc3)c(CN3CCOCC3)n2c1 [Compound 163] | + (pIC50 4.00-4.99)
O=C(c1ccc(F)cc1)N1CCN(Cc2c(-c3ccc(Cl)cc3)nc3cnc(-c4ccccc4)cn23)CC1 [Compound 168] | +++ (pIC50 ≧ 6.00)
O=C(c1cccc(F)c1)N1CCCN(Cc2c(-c3ccc(Cl)cc3)nc3ccc(-c4ccccc4)cn23)CC1 [Compound 169] | ++ (pIC50 5.00-5.99)
Clc1ccc(-c2nc3ccc(-c4ncon4)cn3c2CN2CCOCC2)cc1 [Compound 172] | ++ (pIC50 5.00-5.99)
c1ccc(-c2ccc3nc(C4CCCCC4)c(CN4CCOCC4)n3c2)cc1 [Compound 173] | ++ (pIC50 5.00-5.99)
NC(=O)CN1CCN(Cc2c(-c3ccc(Cl)cc3)nc3ccc(-c4ccccc4)cn23)CC1 [Compound 174] | ++ (pIC50 5.00-5.99)
Clc1ccc(-c2nc3ccc(-c4ccccc4)cn3c2CN2CCn3ncnc3C2)cc1 [Compound 175] | ++ (pIC50 5.00-5.99)
Cc1cc2nc(-c3ccc(Cl)cc3)c(CN3CCOCC3)n2cc1-c1ccccc1 [Compound 176] | ++ (pIC50 5.00-5.99)
Clc1ccc(-c2nc3ccc(C4=CCCC4)cn3c2CN2CCOCC2)cc1 [Compound 177] | + (pIC50 4.00-4.99)

SMILES | GLUT1 pIC50
O=C(c1cccc(F)c1)N1CCN(Cc2c(-c3ccc(Cl)cc3)nc3ccc(C4CC4)cn23)CC1 [Compound 178] | +++ (pIC50 ≧ 6.00)
N#Cc1ccc2nc(-c3ccc(Cl)cc3)c(CN3CCOCC3)n2c1 [Compound 179] | +− (pIC50 < 4.00)
Clc1ccc(-c2nc3ccc(-c4nnn[nH]4)cn3c2CN2CCOCC2)cc1 [Compound 180] | +− (pIC50 < 4.00)
O=C(c1cnccn1)N1CCN(Cc2c(-c3ccc(Cl)cc3)nc3ccc(-c4ccccc4)cn23)CC1 [Compound 181] | +++ (pIC50 ≧ 6.00)
O=C(O)C1CCN(Cc2c(-c3ccc(Cl)cc3)nc3ccc(-c4ccccc4)cn23)CC1 [Compound 182] | +− (pIC50 < 4.00)
O=C(c1ccc(Cl)cc1)N1CCN(Cc2c(-c3ccc(Cl)cc3)nc3ccc(-c4ccccc4)cn23)CC1 [Compound 183] | +++ (pIC50 ≧ 6.00)
O=C(c1cncs1)N1CCN(Cc2c(-c3ccc(Cl)cc3)nc3ccc(-c4ccccc4)cn23)CC1 [Compound 184] | +++ (pIC50 ≧ 6.00)
O=C(c1cccc(Cl)c1)N1CCN(Cc2c(-c3ccc(Cl)cc3)nc3ccc(-c4ccccc4)cn23)CC1 [Compound 185] | ++ (pIC50 5.00-5.99)
CC(=O)N1CCN(Cc2c(-c3ccc(Cl)cc3)nc3cnc(-c4ccccc4)cn23)CC1 [Compound 186] | +++ (pIC50 ≧ 6.00)
Clc1ccc(-c2nc3ccc(-c4ccccc4)cn3c2CNC2CCOCC2)cc1 [Compound 188] | ++ (pIC50 5.00-5.99)
COc1cccc(-c2nc3ccc(-c4ccccc4F)cn3c2CN2CCN(C(=O)C3CCC3)CC2)c1 [Compound 189] | +++ (pIC50 ≧ 6.00)
COc1cccc(-c2nc3ccc(-c4ccccc4Cl)cn3c2CN2CCN(C(=O)C3CCC3)CC2)c1 [Compound 190] | +++ (pIC50 ≧ 6.00)
COc1cccc(-c2nc3ccc(-c4ccccc4C#N)cn3c2CN2CCN(C(=O)C3CCC3)CC2)c1 [Compound 191] | +++ (pIC50 ≧ 6.00)
COc1cccc(-c2nc3ccc(-c4ccccc4C(N)=O)cn3c2CN2CCN(C(=O)C3CCC3)CC2)c1 [Compound 192] | ++ (pIC50 5.00-5.99)
N#Cc1cccc(C(=O)N2CCN(Cc3c(-c4ccc(Cl)cc4)nc4ccc(-c5ccccc5)cn34)CC2)c1 [Compound 193] | +++ (pIC50 ≧ 6.00)
CC(=O)N1CCN(Cc2c(-c3ccc(Cl)cc3)nc3ccc(C4CC4)cn23)CC1 [Compound 194] | ++ (pIC50 5.00-5.99)
CCC(=O)N1CCN(Cc2c(-c3ccc(Cl)cc3)nc3ccc(C4CC4)cn23)CC1 [Compound 195] | ++ (pIC50 5.00-5.99)
O=C(c1ccncc1)N1CCN(Cc2c(-c3ccc(Cl)cc3)nc3ccc(C4CC4)cn23)CC1 [Compound 196] | +++ (pIC50 ≧ 6.00)
NC1CCN(Cc2c(-c3ccc(Cl)cc3)nc3ccc(-c4ccccc4)cn23)CC1 [Compound 197] | + (pIC50 4.00-4.99)
CN(C)C(=O)CNCc1c(-c2ccc(Cl)cc2)nc2ccc(-c3ccccc3)cn12 [Compound 198] | + (pIC50 4.00-4.99)
FC(F)(F)c1nnc2n1CCN(Cc1c(-c3ccc(Cl)cc3)nc3ccc(-c4ccccc4)cn13)C2 [Compound 199] | ++ (pIC50 5.00-5.99)
O=C(C1CCOCC1)N1CCN(Cc2c(-c3ccc(Cl)cc3)nc3ccc(-c4ccccc4)cn23)CC1 [Compound 200] | +++ (pIC50 ≧ 6.00)
O=C(C1CCC1)N1CCN(Cc2c(-c3ccc(Cl)cc3)nc3ccc(-c4ccccc4Cl)cn23)CC1 [Compound 201] | +++ (pIC50 ≧ 6.00)
O=C(C1CCC1)N1CCN(Cc2c(-c3ccc(Cl)cc3)nc3ccc(-c4ccccc4F)cn23)CC1 [Compound 202] | +++ (pIC50 ≧ 6.00)
Clc1ccc(-c2nc3ccc(Cc4ccccc4)cn3c2CN2CCOCC2)cc1 [Compound 203] | ++ (pIC50 5.00-5.99)
CC(=O)Nc1ccc2nc(-c3ccc(Cl)cc3)c(CN3CCOCC3)n2c1 [Compound 204] | +− (pIC50 < 4.00)
COc1cccc(-c2nc3ccc(Br)cn3c2CN2CCN(C(=O)C3CCC3)CC2)c1 [Compound 205] | ++ (pIC50 5.00-5.99)
